The values below come from patent US12331035B2, “Bicyclic compound and use thereof” (SK BIOPHARMACEUTICALS CO., LTD., priority 2019, dated 2025).

Structures are written as SMILES.

For this assay, the target named is T1, PRMT5-MEP50 enzyme complex (Homo sapiens, UniProt O14744).
T1 construct: purchased BPS Bioscience (USA) 51045
The assay can be described thus: In vitro PRMT5 enzyme activity assay (methylation of histone H4 arginine H4R3, ELISA absorbance at 450 nm). The format is biochemical. The conditions noted are these: S-adenosylmethionine, histone H4 peptide, 2 hours at room temperature, 8 points 10 μM to 0.128 nM. The method, then: Method for Measuring Enzyme Activity
In vitro assay: PRMT5-MEP50 enzyme complex, cofactor S-adenosylmethionine (SAM) and histone H4 peptide were reacted in vitro, and methylation of arginine (H4R3) —which is the third amino acid of histone H4—was measured in order to measure the enzyme activity of PRMT5.
Reagents: PRMT5-MEP50 enzyme complex (Catalog No. 51045), blocking buffer (52100-B), histone methyltransferase reaction buffer 2 (4×HMT assay buffer 2, Catalog No. 52170), and primary antibody (primary antibody 4-3, Catalog No. 52150) were purchased from BPS Bioscience (USA). The histone H4 peptide (1-20 amino acids) was custom made by Komabiotech (Korea) and used. S-adenosylmethionine was purchased from NEB (New England Biolabs, USA, Catalog No. B9003S). Plates for coating histone H4 peptide, washing buffer and color development reagent were purchased from the following vendors: Plate (Immobilizer™-Amino Plate, NUNC, Denmark, Catalog No. 436023), carbonate-bicarbonate buffer (Sigma-Aldrich, USA, Catalog No. C3041), washing buffer (10×TBST, Biosesang, Korea, Catalog No. T2005), TMB ELISA substrate (Abcam, UK, Catalog No. ab210902), horseradish peroxidase (HRP)-conjugated antibody (Abcam, UK, Catalog No. ab6721).
Experimental procedure: The histone H4 peptide was diluted with carbonate-bicarbonate buffer and prepared to 100 μg/mL, and then dispensed onto the plate per 100 μL and reacted at 37° C. for 1 hour. PRMT5-MEP50 enzyme complex and S-adenosylmethionine were diluted with histone methyltransferase reaction buffer to prepare 5 μg/mL and 2 μM, respectively, and then 20 μL of PRMT5-MEP50 enzyme complex and 25 μL of S-adenosylmethionine were dispensed onto the plate prepared above. 5 μL of the compound diluted with 10% dimethyl sulfoxide solution was added thereto and reacted at room temperature for 2 hours (final volume=50 μL). The concentration of the compound was diluted 1:5 from 10 μM until the lowest concentration of 0.128 nM, and 8 points were used for the test. After preparing the primary antibody by diluting 1:2000 with blocking buffer, 100 μL was added to the plate and reacted at room temperature for 1 hour. After preparing horseradish peroxidase-conjugated antibody by diluting 1:10,000 with blocking buffer, 100 μL was added to the plate and reacted at room temperature for 1 hour. 100 μL of TMB substrate was added and reacted for 3 minutes at room temperature, and 100 μL of 1 N sulfuric acid was then added to terminate the reaction. Then, the absorbance at 450 nm was measured to calculate the IC50 value of the compound. (+++: 1 to 100 nM, ++: greater than 100 to 1,000 nM, +: greater than 1,000 to 10,000 nM)

T1 sequence (O14744 2-637 limits assumed): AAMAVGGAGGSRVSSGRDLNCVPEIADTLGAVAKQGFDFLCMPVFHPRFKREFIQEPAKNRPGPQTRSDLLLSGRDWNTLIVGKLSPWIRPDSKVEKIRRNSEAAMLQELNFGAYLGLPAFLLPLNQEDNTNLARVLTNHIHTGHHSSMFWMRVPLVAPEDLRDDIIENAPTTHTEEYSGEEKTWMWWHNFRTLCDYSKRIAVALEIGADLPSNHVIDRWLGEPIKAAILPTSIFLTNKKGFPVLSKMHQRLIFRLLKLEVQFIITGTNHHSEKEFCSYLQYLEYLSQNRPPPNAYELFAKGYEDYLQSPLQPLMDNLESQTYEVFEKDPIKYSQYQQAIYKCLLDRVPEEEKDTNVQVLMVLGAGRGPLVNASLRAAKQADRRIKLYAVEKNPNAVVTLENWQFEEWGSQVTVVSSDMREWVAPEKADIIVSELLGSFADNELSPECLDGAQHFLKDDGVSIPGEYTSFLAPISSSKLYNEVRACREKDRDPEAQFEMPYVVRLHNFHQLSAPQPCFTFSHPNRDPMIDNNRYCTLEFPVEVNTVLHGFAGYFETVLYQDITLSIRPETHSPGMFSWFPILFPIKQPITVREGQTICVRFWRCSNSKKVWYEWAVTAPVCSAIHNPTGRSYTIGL
T1 sequence (Q9BQA1 2-342 partner limits assumed): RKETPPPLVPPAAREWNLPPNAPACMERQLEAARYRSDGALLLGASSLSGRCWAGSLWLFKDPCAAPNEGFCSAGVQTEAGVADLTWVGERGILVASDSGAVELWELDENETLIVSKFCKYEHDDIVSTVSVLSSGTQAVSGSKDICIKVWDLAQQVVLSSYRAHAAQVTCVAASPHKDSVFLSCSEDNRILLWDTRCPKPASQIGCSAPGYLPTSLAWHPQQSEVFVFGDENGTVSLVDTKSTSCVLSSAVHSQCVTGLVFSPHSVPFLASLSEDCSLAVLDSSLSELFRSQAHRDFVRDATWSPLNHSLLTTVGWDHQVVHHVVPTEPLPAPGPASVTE

The compound `CCCc1ccc2c(c1)CCN(C[C@H](O)CN1CCc3ccccc3C1)C2=O` [Example 13, 2-[(2R)-3-(3,4-dihydro-1H-isoquinolin-2-yl)-2-hydroxy-propyl]-6-propyl-3,4-dihydroisoquinolin-1-one] registered an IC50 of 0.001 to 0.1 µM.

`CC1COCCN1c1ccc2c(c1)CCN(C[C@H](O)CN1CCc3ccccc3C1)C2=O` (stereo partly drawn) [Example 40, 2-[(2R)-3-(3,4-dihydro-1H-isoquinolin-2-yl)-2-hydroxy-propyl]-6-(3-methylmorpholin-4-yl)-3,4-dihydroisoquinolin-1-one] yielded an IC50 of 1 to 10 µM.

The compound `O=C1c2ccc(N3CC4(COC4)C3)cc2CCN1C[C@H](O)CN1CCc2ccccc2C1` [Example 44, 2-[(2R)-3-(3,4-dihydro-1H-isoquinolin-2-yl)-2-hydroxy-propyl]-6-(2-oxa-6-azaspiro[3.3]heptan-6-yl)-3,4-dihydroisoquinolin-1-one] registered an IC50 of 0.001 to 0.1 µM.

In the case of `O=C1c2ccc(N3CC4CC3CN4)cc2CCN1C[C@H](O)CN1CCc2ccccc2C1` (stereo partly drawn) [Example 76, 6-(2,5-diazabicyclo[2.2.1]heptan-2-yl)-2-[(2R)-3-(3,4-dihydro-1H-isoquinolin-2-yl)-2-hydroxy-propyl]-3,4-dihydroisoquinolin-1-one], the IC50 is 0.1 to 1 µM.

For the compound `CCN1CCC(Oc2ccc3c(c2)C(C)(C)CN(C[C@H](O)CN2CCc4ccccc4C2)C3=O)CC1` [Example 131, 2-[(2R)-3-(3,4-dihydro-1H-isoquinolin-2-yl)-2-hydroxy-propyl]-6-[(1-ethyl-4-piperidyl)oxy]-4,4-dimethyl-3H-isoquinolin-1-one], the IC50 was in the range of 0.001 to 0.1 µM.

Regarding `O=C1c2ccc(OC3CCCN(CCF)C3)cc2CCN1C[C@H](O)CN1CCc2ccccc2C1` (stereo partly drawn) [Example 140, 2-[(2R)-3-(3,4-dihydro-1H-isoquinolin-2-yl)-2-hydroxypropyl]-6-[[1-(2-fluoroethyl)-3-piperidyl]oxy]-3,4-dihydroisoquinolin-1-one], the IC50 lay in the range of 0.1 to 1 µM.

Compound `CC(=O)Nc1ccc2c(c1)CCN(C[C@H](O)CN1CCc3ccccc3C1)C2=O` [Example 42, N-[2-[(2R)-3-(3,4-dihydro-1H-isoquinolin-2-yl)-2-hydroxy-propyl]-1-oxo-3,4-dihydroisoquinolin-6-yl]acetamide] displayed an IC50 of 0.1 to 1 µM.

On to `O=C1c2ccc(NCC3CCCCC3)cc2CCN1C[C@H](O)CN1CCc2ccccc2C1` [Example 6, 6-(cyclohexylmethylamino)-2-[(2R)-3-(3,4-dihydro-1H-isoquinolin-2-yl)-2-hydroxy-propyl]-3,4-dihydroisoquinolin-1-one], for which the IC50 lay in the range of 0.001 to 0.1 µM.

Take `O=C1c2ccc(N3CCn4ccnc4C3)cc2CCN1C[C@H](O)CN1CCc2ccccc2C1` [Example 102, 6-(6,8-dihydro-5H-imidazo[1,2-a]pyrazin-7-yl)-2-[(2R)-3-(3,4-dihydro-1H-isoquinoline-2-yl)-2-hydroxy-propyl]-3,4-dihydroisoquinolin-1-one]: the IC50 is 0.001 to 0.1 µM.

The compound `O=C1c2ccc(N3CCC(N4CCCCC4)CC3)cc2CCN1C[C@H](O)CN1CCc2ccccc2C1` [Example 107, 2-[(2R)-3-(3,4-dihydro-1H-isoquinolin-2-yl)-2-hydroxy-propyl]-6-[4-(1-piperidyl)-1-piperidyl]-3,4-dihydroisoquinolin-1-one] had an IC50 of 0.1 to 1 µM.

As for `O=C1c2ccc(NCC3CCNCC3)cc2CCN1C[C@H](O)CN1CCc2ccccc2C1` [Example 31, 2-[(2R)-3-(3,4-dihydro-1H-isoquinolin-2-yl)-2-hydroxy-propyl]-6-(4-piperidylmethylamino)-3,4-dihydroisoquinolin-1-one], the IC50 fell in the range of 0.001 to 0.1 µM.

Compound `O=C1c2ccc(N3CCCC3=O)cc2CCN1C[C@H](O)CN1CCc2ccccc2C1` [Example 18, 2-[(2R)-3-(3,4-dihydro-1H-isoquinolin-2-yl)-2-hydroxy-propyl]-6-(2-oxopyrrolidin-1-yl)-3,4-dihydroisoquinolin-1-one] yielded an IC50 of 1 to 10 µM.

The compound `O=C(CN1CCOCC1)Nc1ccc2c(c1)CCN(C[C@H](O)CN1CCc3ccccc3C1)C2=O` [Example 33, N-[2-[(2R)-3-(3,4-dihydro-1H-isoquinolin-2-yl)-2-hydroxy-propyl]-1-oxo-3,4-dihydroisoquinolin-6-yl]-2-morpholino-acetamide] yielded an IC50 of 0.001 to 0.1 µM.

Regarding `O=C1c2ccc(N3CCOCC3)nc2CCN1C[C@H](O)CN1CCc2ccccc2C1` [Example 89, 6-[(2R)-3-(3,4-dihydro-1H-isoquinolin-2-yl)-2-hydroxy-propyl]-2-morpholino-7,8-dihydro-1,6-naphthyridin-5-one], the IC50 lay in the range of 0.001 to 0.1 µM.

In turn, `COCCN1CCN(c2ccc3c(c2)CCN(C[C@H](O)CN2CCc4ccccc4C2)C3=O)CC1` [Example 109, 2-[(2R)-3-(3,4-dihydro-1H-isoquinolin-2-yl)-2-hydroxy-propyl]-6-[4-(2-methoxyethyl)piperazin-1-yl]-3,4-dihydroisoquinolin-1-one] came in with an IC50 of 0.1 to 1 µM.

`CC1(C)CN(C[C@H](O)CN2CCc3ccccc3C2)C(=O)c2ccc(N3CCN(C=O)CC3)cc21` [Example 125, 4-[2-[(2R)-3-(3,4-dihydro-1H-isoquinolin-2-yl)-2-hydroxy-propyl]-4,4-dimethyl-1-oxo-3H-isoquinolin-6-yl]piperazine-1-carbaldehyde] registered an IC50 of 0.1 to 1 µM.

With `O=C1c2ccc(NCc3ccncc3)cc2CCN1C[C@H](O)CN1CCc2ccccc2C1` [Example 10, 2-[(2R)-3-(3,4-dihydro-1H-isoquinolin-2-yl)-2-hydroxy-propyl]-6-(4-pyridylmethylamino)-3,4-dihydroisoquinolin-1-one], the 50% inhibitory concentration (IC50) lay in the range of 0.001 to 0.1 µM.

On to `CN(C)CC1CCN(c2ccc3c(c2)CCN(C[C@H](O)CN2CCc4ccccc4C2)C3=O)CC1` [Example 117, 2-[(2R)-3-(3,4-dihydro-1H-isoquinolin-2-yl)-2-hydroxy-propyl]-6-[4-[(dimethylamino)methyl]-1-piperidyl]-3,4-dihydroisoquinolin-1-one], for which the IC50 was in the range of 0.1 to 1 µM.

Consider `O=C1c2ccc(OC3CCN(C4COC4)CC3)cc2CCN1C[C@H](O)CN1CCc2ccccc2C1` [Example 136, 2-[(2R)-3-(3,4-dihydro-1H-isoquinolin-2-yl)-2-hydroxy-propyl]-6-[[1-(oxetan-3-yl)-4-piperidyl]oxy]-3,4-dihydroisoquinolin-1-one], for which the IC50 was 0.001 to 0.1 µM.

The compound `O=C1c2ccc(N3CCN4C(=O)OCC4C3)cc2CCN1C[C@H](O)CN1CCc2ccccc2C1` (stereo partly drawn) [Example 94, 7-[2-[(2R)-3-(3,4-dihydro-1H-isoquinolin-2-yl)-2-hydroxy-propyl]-1-oxo-3,4-dihydroisoquinolin-6-yl]-5,6,8,8a-tetrahydro-1H-oxazolo[3,4-a]pyrazin-3-one] showed an IC50 of 0.001 to 0.1 µM.

`O=C1c2ccc(Br)cc2CCN1C[C@H](O)CN1CCc2ccccc2C1` [Example 1, 6-bromo-2-[(2R)-3-(3,4-dihydro-1H-isoquinolin-2-yl)-2-hydroxy-propyl]-3,4-dihydroisoquinolin-1-one] came in with an IC50 of 0.001 to 0.1 µM.

Turning to `CC(=O)N1CCN(c2ccc3c(c2)CCN(C[C@H](O)CN2CCc4ccccc4C2)C3=O)CC1` [Example 52, 6-(4-acetylpiperazin-1-yl)-2-[(2R)-3-(3,4-dihydro-1H-isoquinolin-2-yl)-2-hydroxy-propyl]-3,4-dihydroisoquinolin-1-one], the IC50 lay within 0.1 to 1 µM.

`O=C1c2ccc(N3CCOC3=O)cc2CCN1C[C@H](O)CN1CCc2ccccc2C1` [Example 45, 3-[2-[(2R)-3-(3,4-dihydro-1H-isoquinolin-2-yl)-2-hydroxy-propyl]-1-oxo-3,4-dihydroisoquinolin-6-yl]oxazolidin-2-one] had an IC50 of 0.1 to 1 µM.

For the compound `O=C1c2ccc(N3CCC(N4CCCC4)CC3)cc2CCN1C[C@H](O)CN1CCc2ccccc2C1` [Example 106, 2-[(2R)-3-(3,4-dihydro-1H-isoquinolin-2-yl)-2-hydroxy-propyl]-6-(4-pyrrolidin-1-yl-1-piperidyl)-3,4-dihydroisoquinolin-1-one], the IC50 lay in the range of 0.001 to 0.1 µM.

`CN(C)CC#Cc1ccc2c(c1)CCN(C[C@H](O)CN1CCc3ccccc3C1)C2=O` [Example 141, 2-[(2R)-3-(3,4-dihydro-1H-isoquinolin-2-yl)-2-hydroxypropyl]-6-[3-(dimethylamino)prop-1-ynyl]-3,4-dihydroisoquinolin-1-one] gave an IC50 of 0.1 to 1 µM.
